Experimental data: ChEMBL document CHEMBL4507263, “Data for DCP probe BAY-474” (2021)

Experiments:
[1] = target: Cyclin-dependent kinase-like 2 (Homo sapiens) (UniProt Q92772); settings: Compound concentration 1000.0 nM
[2] = target: Peripheral plasma membrane protein CASK (Homo sapiens) (UniProt O14936); settings: Compound concentration 1000.0 nM
[3] = target: Serine/threonine-protein kinase pim-3 (Homo sapiens) (UniProt Q86V86); settings: Compound concentration 1000.0 nM
[4] = target: 5-hydroxytryptamine receptor 2B (Homo sapiens) (UniProt P41595); settings: Compound concentration 10.0 uM
[5] = target: Tyrosine-protein kinase CSK (Homo sapiens) (UniProt P41240); settings: Compound concentration 1000.0 nM
[6] = target: Cyclin-dependent kinase 17 (Homo sapiens) (UniProt Q00537); settings: Compound concentration 1000.0 nM
[7] = target: Phosphatidylinositol 4-phosphate 5-kinase type-1 gamma (Homo sapiens) (UniProt O60331); settings: Compound concentration 1000.0 nM
[8] = target: Cyclin-dependent kinase 3 (Homo sapiens) (UniProt Q00526); settings: Compound concentration 1000.0 nM
[9] = system: Tyrosine-protein kinase ABL1 (Homo sapiens), P00519 [M351T]; settings: Compound concentration 1000.0 nM
[10] = target: Serine/threonine-protein kinase D2 (Homo sapiens) (UniProt Q9BZL6); settings: Compound concentration 1000.0 nM
[11] = target: Serine/threonine-protein kinase OSR1 (Homo sapiens) (UniProt O95747); settings: Compound concentration 1000.0 nM
[12] = target: GABA-A receptor; anion channel (Rattus norvegicus) (UniProt O09028+P15431+P18506+P18508+P19969+P20236+P23574+P23576+P28471+P28473+P30191+P62813+P63079+P63138+Q91ZM7+Q9ES14); settings: Compound concentration 10.0 uM
[13] = target: Ribosomal protein S6 kinase alpha-5 (Homo sapiens) (UniProt O75582); settings: Compound concentration 1000.0 nM
[14] = target: Serine/threonine-protein kinase PAK 5 (Homo sapiens) (UniProt Q9P286); settings: Compound concentration 1000.0 nM
[15] = target: Serine/threonine-protein kinase 4 (Homo sapiens) (UniProt Q13043); settings: Compound concentration 1000.0 nM
[16] = system: Mast/stem cell growth factor receptor Kit (Homo sapiens), P10721 [V559D]; settings: Compound concentration 1000.0 nM
[17] = target: Serine/threonine-protein kinase TAO3 (Homo sapiens) (UniProt Q9H2K8); settings: Compound concentration 1000.0 nM
[18] = target: Tyrosine-protein kinase JAK1 (Homo sapiens) (UniProt P23458); settings: Compound concentration 1000.0 nM
[19] = target: TRAF2 and NCK-interacting protein kinase (Homo sapiens) (UniProt Q9UKE5); settings: Compound concentration 1000.0 nM
[20] = system: Phosphatidylinositol 4,5-bisphosphate 3-kinase catalytic subunit alpha isoform (Homo sapiens), P42336 [H1047L]; settings: Compound concentration 1000.0 nM
[21] = target: 1-phosphatidylinositol 3-phosphate 5-kinase (Homo sapiens) (UniProt Q9Y2I7); settings: Compound concentration 1000.0 nM
[22] = target: Ephrin type-A receptor 2 (Homo sapiens) (UniProt P29317); settings: Compound concentration 1000.0 nM
D(1B) dopamine receptor = D(1B) dopamine receptor (Homo sapiens, UniProt P21918); assay: GPCRScan assay: inhibition of D5; design: radioligand conc. used [nm] 2.0 – 3.0, parental cells HEKT
[23] = target: Mitogen-activated protein kinase kinase kinase 1 (Homo sapiens) (UniProt Q13233); settings: Compound concentration 1000.0 nM
[24] = target: Ankyrin repeat and protein kinase domain-containing protein 1 (Homo sapiens) (UniProt Q8NFD2); settings: Compound concentration 1000.0 nM
[25] = target: Serine/threonine-protein kinase WNK1 (Homo sapiens) (UniProt Q9H4A3); settings: Compound concentration 1000.0 nM
[26] = target: Mitogen-activated protein kinase 3 (Homo sapiens) (UniProt P27361); settings: Compound concentration 1000.0 nM
[27] = target: Activin receptor type-1B (Homo sapiens) (UniProt P36896); assay: ALK4 (h) Millipore kinase activity assay; settings: Compound concentration 1.0 uM
[28] = target: Casein kinase I isoform gamma-1 (Homo sapiens) (UniProt Q9HCP0); assay: CK1gamma1 (h) Millipore kinase activity assay; settings: Compound concentration 1.0 uM
[29] = target: Glutamate receptor ionotropic, kainate (Rattus norvegicus) (UniProt P22756+Q01812+P42260+P42264+Q63273); assay: Inhibition of Glutamate, Kainate at 10 µM in the Eurofins-Panlabs radioligand binding assay (Eurofins_assay_232700); settings: Compound concentration 10.0 uM
[30] = target: Beta-1 adrenergic receptor (Homo sapiens) (UniProt P08588); settings: Compound concentration 10.0 uM
[31] = target: Serine/threonine-protein kinase STK11 (Homo sapiens) (UniProt Q15831); assay: LKB1 (h) Millipore kinase activity assay; settings: Compound concentration 1.0 uM
[32] = target: Eukaryotic elongation factor 2 kinase (Homo sapiens) (UniProt O00418); assay: eEF-2K (h) Millipore kinase activity assay; settings: Compound concentration 1.0 uM
[33] = target: Protein kinase C gamma type (Homo sapiens) (UniProt P05129); assay: PKCgamma(h) Millipore kinase activity assay; settings: Compound concentration 1.0 uM
[34] = target: Serine/threonine-protein kinase 33 (Homo sapiens) (UniProt Q9BYT3); assay: STK33 (h) Millipore kinase activity assay; settings: Compound concentration 1.0 uM
[35] = target: Myosin light chain kinase (Homo sapiens) (UniProt Q32MK0); assay: MLCK (h) Millipore kinase activity assay; settings: Compound concentration 1.0 uM
[36] = target: Calcium/calmodulin-dependent protein kinase type II subunit gamma (Homo sapiens) (UniProt Q13555); assay: CaMKIIgamma (h) Millipore kinase activity assay; settings: Compound concentration 1.0 uM
[37] = target: Endothelin receptor type B (Homo sapiens) (UniProt P24530); settings: Compound concentration 10.0 uM
[38] = target: Ephrin type-A receptor 2 (Homo sapiens) (UniProt P29317); assay: EphA2 (h) Millipore kinase activity assay; settings: Compound concentration 1.0 uM
[39] = target: Dual specificity protein kinase CLK3 (Homo sapiens) (UniProt P49761); assay: CLK3 (h) Millipore kinase activity assay; settings: Compound concentration 1.0 uM
[40] = target: Mitogen-activated protein kinase 14 (Homo sapiens) (UniProt Q16539); assay: SAPK2a (h) Millipore kinase activity assay; settings: Compound concentration 1.0 uM
[41] = target: Serine/threonine-protein kinase PAK 3 (Homo sapiens) (UniProt O75914); assay: PAK3 (h) Millipore kinase activity assay; settings: Compound concentration 1.0 uM
[42] = target: High affinity nerve growth factor receptor (Homo sapiens) (UniProt P04629); assay: TrkA (h) Millipore kinase activity assay; settings: Compound concentration 1.0 uM
[43] = target: Mitogen-activated protein kinase 12 (Homo sapiens) (UniProt P53778); assay: SAPK3 (h) Millipore kinase activity assay; settings: Compound concentration 1.0 uM
Mitogen-activated protein kinase 12 (Homo sapiens), sequence (P53778 whole entry): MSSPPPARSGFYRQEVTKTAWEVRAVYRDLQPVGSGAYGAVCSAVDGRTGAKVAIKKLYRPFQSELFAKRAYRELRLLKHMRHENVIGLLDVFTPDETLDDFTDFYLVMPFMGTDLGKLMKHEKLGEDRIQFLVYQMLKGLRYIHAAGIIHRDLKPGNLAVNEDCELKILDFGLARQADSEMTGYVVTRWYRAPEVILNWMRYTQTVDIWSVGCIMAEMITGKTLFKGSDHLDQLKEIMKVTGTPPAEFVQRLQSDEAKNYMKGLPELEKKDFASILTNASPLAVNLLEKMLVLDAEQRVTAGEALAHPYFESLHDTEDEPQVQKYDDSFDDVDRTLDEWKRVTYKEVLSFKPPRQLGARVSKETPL

Ephrin type-A receptor 2 (Homo sapiens), sequence (P29317 whole entry): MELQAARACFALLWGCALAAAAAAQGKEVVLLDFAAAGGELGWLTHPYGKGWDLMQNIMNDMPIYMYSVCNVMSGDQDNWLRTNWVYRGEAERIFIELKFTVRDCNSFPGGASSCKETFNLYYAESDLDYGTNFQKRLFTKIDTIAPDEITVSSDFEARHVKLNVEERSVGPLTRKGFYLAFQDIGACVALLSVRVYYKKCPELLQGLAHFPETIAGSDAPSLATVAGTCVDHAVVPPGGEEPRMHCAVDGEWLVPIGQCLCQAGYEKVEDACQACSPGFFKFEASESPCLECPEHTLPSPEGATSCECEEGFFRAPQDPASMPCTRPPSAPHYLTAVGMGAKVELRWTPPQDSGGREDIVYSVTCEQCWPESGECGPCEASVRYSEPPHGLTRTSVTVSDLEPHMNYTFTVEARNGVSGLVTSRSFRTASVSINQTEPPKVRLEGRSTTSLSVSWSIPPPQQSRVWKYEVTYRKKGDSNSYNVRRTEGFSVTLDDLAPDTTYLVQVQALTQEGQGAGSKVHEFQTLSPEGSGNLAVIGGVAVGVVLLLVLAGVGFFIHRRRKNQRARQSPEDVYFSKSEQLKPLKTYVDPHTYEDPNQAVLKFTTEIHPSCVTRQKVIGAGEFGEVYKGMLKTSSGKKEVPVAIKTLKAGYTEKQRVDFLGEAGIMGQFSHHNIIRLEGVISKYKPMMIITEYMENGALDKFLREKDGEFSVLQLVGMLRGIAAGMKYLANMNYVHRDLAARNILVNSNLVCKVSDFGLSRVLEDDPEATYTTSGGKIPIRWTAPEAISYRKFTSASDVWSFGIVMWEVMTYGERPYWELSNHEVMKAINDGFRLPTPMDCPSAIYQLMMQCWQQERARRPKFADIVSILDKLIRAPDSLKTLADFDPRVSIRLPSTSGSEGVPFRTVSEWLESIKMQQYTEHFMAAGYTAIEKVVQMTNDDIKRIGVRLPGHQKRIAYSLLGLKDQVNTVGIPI
Serine/threonine-protein kinase D2 (Homo sapiens), sequence (Q9BZL6 whole entry): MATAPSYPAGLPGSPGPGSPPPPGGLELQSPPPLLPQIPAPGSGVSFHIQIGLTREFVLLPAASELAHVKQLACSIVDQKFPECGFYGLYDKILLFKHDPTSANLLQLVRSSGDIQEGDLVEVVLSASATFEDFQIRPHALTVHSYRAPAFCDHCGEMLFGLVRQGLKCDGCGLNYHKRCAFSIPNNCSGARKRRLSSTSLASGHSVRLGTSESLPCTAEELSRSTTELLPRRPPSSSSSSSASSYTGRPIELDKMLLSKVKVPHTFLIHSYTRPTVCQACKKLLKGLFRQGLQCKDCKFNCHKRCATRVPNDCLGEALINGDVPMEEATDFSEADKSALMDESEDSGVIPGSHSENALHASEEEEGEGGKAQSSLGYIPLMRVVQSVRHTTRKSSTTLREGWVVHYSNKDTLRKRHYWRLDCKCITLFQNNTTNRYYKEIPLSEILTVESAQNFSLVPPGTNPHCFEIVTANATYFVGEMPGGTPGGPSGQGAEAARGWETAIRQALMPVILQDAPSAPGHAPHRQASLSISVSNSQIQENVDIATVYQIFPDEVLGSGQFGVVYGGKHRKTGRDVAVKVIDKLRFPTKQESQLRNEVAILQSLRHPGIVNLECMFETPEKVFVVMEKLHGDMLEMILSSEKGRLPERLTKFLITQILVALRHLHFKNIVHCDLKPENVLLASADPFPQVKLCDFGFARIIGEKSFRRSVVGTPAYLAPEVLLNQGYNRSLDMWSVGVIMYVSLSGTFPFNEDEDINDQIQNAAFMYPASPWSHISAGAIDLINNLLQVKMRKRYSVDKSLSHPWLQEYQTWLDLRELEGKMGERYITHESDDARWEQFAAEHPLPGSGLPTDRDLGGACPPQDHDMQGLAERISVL
5-hydroxytryptamine receptor 2B (Homo sapiens), sequence (P41595 whole entry): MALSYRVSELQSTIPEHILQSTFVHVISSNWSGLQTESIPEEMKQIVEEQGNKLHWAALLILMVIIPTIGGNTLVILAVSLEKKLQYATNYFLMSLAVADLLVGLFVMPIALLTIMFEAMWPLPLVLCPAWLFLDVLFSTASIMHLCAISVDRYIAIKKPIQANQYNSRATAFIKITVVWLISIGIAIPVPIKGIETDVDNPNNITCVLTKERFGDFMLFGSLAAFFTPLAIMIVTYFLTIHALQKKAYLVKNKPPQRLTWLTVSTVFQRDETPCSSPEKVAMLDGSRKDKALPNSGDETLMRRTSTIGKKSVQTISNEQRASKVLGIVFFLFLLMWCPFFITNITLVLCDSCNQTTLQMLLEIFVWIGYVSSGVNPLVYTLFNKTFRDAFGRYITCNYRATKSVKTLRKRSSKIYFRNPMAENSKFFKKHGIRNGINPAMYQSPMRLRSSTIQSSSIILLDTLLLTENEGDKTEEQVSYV
Eukaryotic elongation factor 2 kinase (Homo sapiens), sequence (O00418 whole entry): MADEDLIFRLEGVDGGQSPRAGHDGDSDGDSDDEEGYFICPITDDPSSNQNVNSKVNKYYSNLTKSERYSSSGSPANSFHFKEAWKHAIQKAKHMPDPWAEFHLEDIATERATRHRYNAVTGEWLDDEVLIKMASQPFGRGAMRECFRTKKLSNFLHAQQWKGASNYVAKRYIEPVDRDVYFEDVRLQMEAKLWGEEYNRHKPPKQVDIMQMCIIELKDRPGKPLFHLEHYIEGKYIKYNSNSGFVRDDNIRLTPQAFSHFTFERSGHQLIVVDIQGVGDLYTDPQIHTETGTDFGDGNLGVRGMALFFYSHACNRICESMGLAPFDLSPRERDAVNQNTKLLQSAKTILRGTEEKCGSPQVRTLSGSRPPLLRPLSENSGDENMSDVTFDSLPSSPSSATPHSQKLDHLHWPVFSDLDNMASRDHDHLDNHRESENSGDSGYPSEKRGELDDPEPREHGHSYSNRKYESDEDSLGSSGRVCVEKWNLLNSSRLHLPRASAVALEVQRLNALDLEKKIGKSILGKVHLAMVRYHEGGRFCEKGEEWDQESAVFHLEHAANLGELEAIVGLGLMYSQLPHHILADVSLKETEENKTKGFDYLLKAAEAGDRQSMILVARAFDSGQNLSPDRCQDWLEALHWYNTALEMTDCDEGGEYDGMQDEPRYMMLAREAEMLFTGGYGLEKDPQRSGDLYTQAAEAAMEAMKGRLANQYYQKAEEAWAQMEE
Endothelin receptor type B (Homo sapiens), sequence (P24530 whole entry): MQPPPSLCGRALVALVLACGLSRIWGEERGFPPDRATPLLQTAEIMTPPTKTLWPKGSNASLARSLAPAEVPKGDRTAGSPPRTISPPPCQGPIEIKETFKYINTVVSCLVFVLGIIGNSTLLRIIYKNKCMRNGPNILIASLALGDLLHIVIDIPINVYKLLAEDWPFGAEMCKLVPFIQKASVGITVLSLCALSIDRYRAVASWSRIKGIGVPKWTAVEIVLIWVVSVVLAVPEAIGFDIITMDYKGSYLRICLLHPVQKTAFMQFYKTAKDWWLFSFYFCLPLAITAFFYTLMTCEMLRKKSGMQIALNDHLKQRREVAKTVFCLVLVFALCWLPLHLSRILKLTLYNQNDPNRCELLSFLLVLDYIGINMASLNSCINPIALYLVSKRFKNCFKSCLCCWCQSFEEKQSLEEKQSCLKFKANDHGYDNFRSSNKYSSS
Serine/threonine-protein kinase OSR1 (Homo sapiens), sequence (O95747 2-527 limits assumed): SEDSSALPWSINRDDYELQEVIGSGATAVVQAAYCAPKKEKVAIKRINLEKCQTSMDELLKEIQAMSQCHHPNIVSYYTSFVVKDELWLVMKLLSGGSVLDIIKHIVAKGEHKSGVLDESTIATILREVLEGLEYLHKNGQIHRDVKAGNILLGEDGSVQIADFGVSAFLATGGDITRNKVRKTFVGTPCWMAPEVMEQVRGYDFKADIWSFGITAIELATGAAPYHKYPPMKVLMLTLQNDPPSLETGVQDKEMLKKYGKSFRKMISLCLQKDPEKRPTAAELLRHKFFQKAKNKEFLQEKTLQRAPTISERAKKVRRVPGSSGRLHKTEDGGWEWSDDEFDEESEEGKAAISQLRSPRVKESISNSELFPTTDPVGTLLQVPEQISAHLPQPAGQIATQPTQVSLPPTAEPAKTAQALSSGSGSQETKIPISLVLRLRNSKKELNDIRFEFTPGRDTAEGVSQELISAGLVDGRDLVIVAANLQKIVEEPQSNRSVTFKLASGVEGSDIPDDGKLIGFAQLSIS
Cyclin-dependent kinase 3 (Homo sapiens), sequence (Q00526 whole entry, looked up): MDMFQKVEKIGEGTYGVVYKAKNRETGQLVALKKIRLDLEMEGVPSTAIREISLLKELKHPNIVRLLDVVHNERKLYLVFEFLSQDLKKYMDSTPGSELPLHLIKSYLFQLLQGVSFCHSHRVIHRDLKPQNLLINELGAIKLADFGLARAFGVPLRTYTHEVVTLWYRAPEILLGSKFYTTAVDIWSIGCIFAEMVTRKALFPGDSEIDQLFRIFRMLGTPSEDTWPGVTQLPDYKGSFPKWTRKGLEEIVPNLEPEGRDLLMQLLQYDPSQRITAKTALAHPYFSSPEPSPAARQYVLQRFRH

`CC1=C(C#N)[C@@H](c2ccc3[nH]nc(C)c3c2)C(C#N)=C(c2ccc(Cl)cc2)N1` [BAY-827] gave a residual activity [1] of 97.9%, a residual activity [2] of 66.2% and a residual activity [3] of 100%. It also gave an inhibition [4] of -7.44%, a residual activity [5] of 100% and a residual activity [6] of 87.2%. The residual activity [7] was 99.5%, the residual activity [8] was 100% and the residual activity [9] was 94.6%. It also gave a residual activity [10] of 100%, a residual activity [11] of 100% and an inhibition [12] of -7.24%. For the same compound, the residual activity [13] was 100%, the residual activity [14] was 100% and the residual activity [15] was 100%. The residual activity [16] was 100%, the residual activity [17] was 100% and the residual activity [18] was 100%. For the same compound, the residual activity [19] was 100%, the residual activity [20] was 100% and the residual activity [21] was 100%. The residual activity [22] was 100%, the Ki (D(1B) dopamine receptor) was 10 µM and the residual activity [23] was 100%. For the same compound, the residual activity [24] was 100%, the residual activity [25] was 100% and the residual activity [26] was 100%.

`CC1=C(C#N)C(c2ccc3[nH]nc(C)c3c2)C(C#N)=C(C)N1` [BAY-474] showed an inhibition [27] of 4%, an inhibition [28] of -9% and an inhibition [29] of -4%. For the same compound, the inhibition [30] was 0%, the inhibition [31] was -8% and the inhibition [32] was -5%. For the same compound, the inhibition [33] was 18%, the inhibition [34] was 2% and the inhibition [35] was 9%. For the same compound, the inhibition [36] was 2%, the inhibition [37] was 18% and the inhibition [38] was 13%. For the same compound, the inhibition [39] was -1%, the inhibition [40] was 3% and the inhibition [41] was -8%. The inhibition [42] was 27% and the inhibition [43] was 8%.
